For 19 compounds, IC50 results are on record in EP4745131A1, “PYRIMIDINAMINE NUAK INHIBITOR AS WELL AS PREPARATION METHOD THEREFOR AND USE THEREOF” (Technoderma Medicines Inc., priority 2023, dated 2025).

In test [1] the target is T1, NUAK2 (Homo sapiens, UniProt Q9H093).
T1 sequence (Q9H093 1-628): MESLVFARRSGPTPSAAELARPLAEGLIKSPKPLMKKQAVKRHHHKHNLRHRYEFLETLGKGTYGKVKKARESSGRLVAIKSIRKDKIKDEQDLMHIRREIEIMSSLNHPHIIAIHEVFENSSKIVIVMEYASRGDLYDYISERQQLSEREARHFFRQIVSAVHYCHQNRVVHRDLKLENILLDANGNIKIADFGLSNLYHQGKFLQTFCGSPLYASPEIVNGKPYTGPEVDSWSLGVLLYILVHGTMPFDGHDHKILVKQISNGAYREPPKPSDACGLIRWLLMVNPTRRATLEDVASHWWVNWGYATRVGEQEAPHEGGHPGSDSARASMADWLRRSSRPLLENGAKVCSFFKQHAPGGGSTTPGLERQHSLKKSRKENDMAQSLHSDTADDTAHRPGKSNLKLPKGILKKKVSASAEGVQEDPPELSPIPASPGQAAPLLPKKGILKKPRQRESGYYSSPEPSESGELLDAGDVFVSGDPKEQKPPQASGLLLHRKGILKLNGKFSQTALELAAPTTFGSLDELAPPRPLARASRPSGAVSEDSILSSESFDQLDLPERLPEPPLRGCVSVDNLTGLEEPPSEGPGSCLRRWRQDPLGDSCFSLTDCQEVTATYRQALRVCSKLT
Briefly: Kinase activity assay, P81 filter paper binding hot-spot technique (33P-ATP, CHKtide substrate). The format is biochemical. Particulars: final concentration of NUAK2 50 nM; 20 µM CHKtide substrate; 33P-labeled ATP; 2 hours at room temperature; read-out: IC50 (nM) of Test Compounds against NUAK2. The method, then:
(§1) The inhibitory activity of the pyrimidinamine small molecules involved in the present application against NUAK1 and NUAK2 kinases was determined using a kinase activity assay based on the P81 filter paper binding hot-spot technique (Nat Biotechnol. 2011, 29:1039). A brief description is as follows:
(§2) The assay buffer system contained 20 mM Hepes (pH 7.5), 10 mM MgCl2, 1 mM EGTA, 0.01% Brij35 (L23 polyoxyethylene lauryl ether), 0.02 mg/mL BSA (bovine serum albumin), 0.1 mM Na3VO4, 2 mM DTT, and 1% DMSO.
(§3) • 1. A 20 µM substrate solution was prepared with freshly prepared test buffer and CHKtide peptide fragments (Sanchez Y. Science. 1997, 277: 1497-1501) were used as a substrate. • 2. Kinases were added and mixed gently (a final concentration of NUAK1 was 10 nM; and a final concentration of NUAK2 was 50 nM). • 3. Test compounds dissolved in 100% DMSO were each added to the above kinase reaction mixture solution via Acoustic Droplet Ejection (Echo550; nanoliter) and the mixture was incubated for 5 minutes at room temperature. • 4. ^33P-labeled ATP (a ratio of unlabeled ATP to labeled ATP was 25:1 or 2.5:1) was added. • 5. The mixture was incubated for 2 hours at room temperature. • 6. Kinase activity was tested using the P81 filter paper combined with hotspot technology.
(§4) The IC50 values of the test compounds against NUAK1/NUAK2 were calculated according to the above test. For specific results, see Table 1.
(§5) The IC50 values were calculated by using a formula derived from sigmoidal dose-response curve (variable slope): Y = Bottom + (Top-Bottom)/(1+10^((LogEC50-X)*Slope, where X is the logarithm of compound concentration, Y is the response (inhibition rate of kinase activity), and Y rises from bottom to top along the sigmoidal curve as the concentration increases. Table 1: IC50 (nM) of Test Compounds of the Present Application against NUAK1/NUAK2

For test [2], the target named is T2, NUAK1 (Homo sapiens, UniProt O60285).
T2 sequence (O60285 1-661): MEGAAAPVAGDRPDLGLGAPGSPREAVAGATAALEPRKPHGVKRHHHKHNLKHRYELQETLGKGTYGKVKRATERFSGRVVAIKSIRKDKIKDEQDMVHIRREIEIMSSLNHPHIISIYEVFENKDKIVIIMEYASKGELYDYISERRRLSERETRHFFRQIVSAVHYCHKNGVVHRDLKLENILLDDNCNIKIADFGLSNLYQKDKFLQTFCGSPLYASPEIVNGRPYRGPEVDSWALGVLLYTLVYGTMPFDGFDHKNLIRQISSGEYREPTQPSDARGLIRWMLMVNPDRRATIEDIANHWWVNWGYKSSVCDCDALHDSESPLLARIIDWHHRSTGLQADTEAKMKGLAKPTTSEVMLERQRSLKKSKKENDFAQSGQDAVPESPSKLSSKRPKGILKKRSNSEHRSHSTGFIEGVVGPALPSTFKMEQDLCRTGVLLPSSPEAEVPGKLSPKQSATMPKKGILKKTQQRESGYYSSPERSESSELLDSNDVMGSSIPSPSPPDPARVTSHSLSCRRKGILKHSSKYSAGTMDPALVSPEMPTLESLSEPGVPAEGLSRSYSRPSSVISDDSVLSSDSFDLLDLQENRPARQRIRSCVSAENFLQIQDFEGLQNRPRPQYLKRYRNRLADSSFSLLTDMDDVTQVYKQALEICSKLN
The test is described as above. The conditions noted are these: final concentration of NUAK1 10 nM; 20 µM CHKtide substrate; 33P-labeled ATP; 2 hours at room temperature; read-out: IC50 (nM) of Test Compounds against NUAK1. In kind it is biochemical. The method, then:
as §1, §2, §3, §4, §5

The IC50 is the concentration that gives 50% inhibition. With “1-(5-chloro-2-((2-methoxy-4-(piperidin-4-yl)phenyl)amino)pyrimidin-4-yl)-N-(cyanomethyl)-1H-pyrrole-3-carboxamide [TDM-181157]”, the IC50 in test [1] is 487 nM; in test [2], 194 nM. The corresponding values for “2-(1-(piperidin-4-yl)-1H-pyrazol-4-yl)aminopyrimidin-4-yl)-1H-pyrazol-4-ylpropanesulfonamide [TDM-181135]” are 265 nM and 34 nM. For `CCS(=O)(=O)N1CCC(n2cc(-c3ccnc(Nc4cnn(C5CCNCC5)c4)n3)cn2)C1` (centres unmarked) [TDM-181134, 4-(1-(1-(Ethylsulfonyl)pyrrolidin-3-yl)-1H-pyrazol-4-yl)-N-(1-(piperidin-4-yl)-1H-pyrazol-4-yl)pyrimidin-2-amine], in that order: 622 nM and 122 nM. For `COc1cc(N2CCN(C)CC2)ccc1Nc1nccc(-n2cc(C(=O)NCC#N)cn2)n1` [TDM-181139, N-(Cyanomethyl)-1-(2-((2-methoxy-4-(4-methylpiperazin-1-yl)phenyl)amino)pyrimidin-4-yl)-1H-pyrazole-4-carboxamide], in that order: 991 nM and 474 nM. For `N#CCNC(=O)c1cnn(-c2ccnc(Nc3cnn(C4CCNCC4)c3)n2)c1` [TDM-181140, N-(Cyanomethyl)-1-(2-((1-(piperidin-4-yl)-1H-pyrazol-4-yl)amino)pyrimidin-4-yl)-1H-pyrazole-4-carboxamide], the half-maximal inhibitory concentration (IC50) was 210 nM in test [1] and 305 nM in test [2].

In the case of `COc1cc(N2CCN(C)CC2)ccc1Nc1nccc(-n2ccc(C(=O)NCC#N)c2)n1` [TDM-181146, N-(Cyanomethyl)-1-(2-((2-methoxy-4-(4-methylpiperazin-1-yl)phenyl)amino)pyrimidin-4-yl)-1H-pyrrole-3-carboxamide], the IC50 stood at 602 nM in test [1] and 260 nM in test [2]. For `CN1CCN(c2ccc(Nc3nccc(-n4ccc(C(=O)NCC#N)c4)n3)cc2)CC1` [TDM-181147, N-(Cyanomethyl)-1-(2-((4-(4-methylpiperazin-1-yl)phenyl)amino)pyrimidin-4-yl)-1H-pyrrole-3-carboxamide], the figures for the IC50 in test [1] and in test [2] were 77 nM and 19 nM, respectively. Consider `COc1cc(C2CCNCC2)ccc1Nc1nccc(-n2ccc(C(=O)NCC#N)c2)n1` [TDM-181152, N-(Cyanomethyl)-1-(2-((2-methoxy-4-(piperidin-4-yl)phenyl)amino)pyrimidin-4-yl)-1H-pyrrole-3-carboxamide], for which the IC50 in test [2] came out at 977 nM. Regarding `N#CCNC(=O)c1ccn(-c2ccnc(Nc3cnn(C4CCNCC4)c3)n2)c1` [TDM-181153, N-(Cyanomethyl)-1-(2-((1-(piperidin-4-yl)-1H-pyrazol-4-yl)amino)pyrimidin-4-yl)-1H-pyrrole-3-carboxamide], the IC50 in test [1] was found to be 107 nM; in test [2], 84 nM. For `N#CCNC(=O)c1ccn(-c2ccnc(Nc3ccc(C4CCNCC4)cc3)n2)c1` [TDM-181154, N-(cyanomethyl)-1-(2-((4-(piperidin-4-yl)phenyl)amino)pyrimidin-4-yl)-1H-pyrrole-3-carboxamide], in that order: 239 nM and 58 nM. `COc1cc(N2CCN(C)CC2)ccc1Nc1ncc(Cl)c(-n2ccc(C(=O)NCC#N)c2)n1` [TDM-181155, 1-(5-Chloro-2-((2-methoxy-4-(4-methylpiperazin-1-yl)phenyl)amino)pyrimidin-4-yl)-N-(cyanomethyl)-1H-pyrrole-3-carboxamide]: the IC50 is 69 nM in test [1] and 43 nM in test [2]. Regarding `COc1cc(C2CCN(C)CC2)ccc1Nc1nccc(-n2ccc(C(=O)NCC#N)c2)n1` [TDM-181156, N-(cyanomethyl)-1-(2-((2-methoxy-4-(1-methylpiperidin-4-yl)phenyl)amino)pyrimidin-4-yl)-1H-pyrrole-3-carboxamide], the IC50 in test [2] stood at 607 nM. On the same count and under the same terms, next, `COc1cc(C2CCN(C)C2)ccc1Nc1nccc(-n2ccc(C(=O)NCC#N)c2)n1` (centres unmarked) [TDM-181158]: 394 nM. On to `O=C(Nc1cnn(-c2ccnc(Nc3cnn(C4CCNCC4)c3)n2)c1)[C@@H]1CC1(F)F` [TDM-181159, 2,2-Difluoro-N-(1-2-((1-(piperidin-4-yl)-1H-pyrazol-4-ylamino)pyrimidin-4-yl)-1H-pyrazol-4-yl)cyclopropane-1-carboxamide], for which the figures for the IC50 in test [1] and in test [2] were 419 nM and 337 nM, respectively. As to `CN1CCC(n2cc(Nc3nccc(-c4cnn(C(=O)C5CC5)c4)n3)cn2)CC1` [TDM-181169, Cyclopropyl(4-(2-((1-(1-methylpiperidin-4-yl)-1H-pyrazol-4-yl)amino)pyrimidin-4-yl)-1H-pyrazol-1-yl)methanone], the values for the IC50 in test [1] and in test [2] were 495 nM and 209 nM, respectively.

Regarding `CNC(=O)c1ccn(-c2nc(Nc3ccc(N4CCN(C)CC4)cc3)ncc2Cl)c1` [TDM-181170, 1-(5-Chloro-2-((4-(4-methylpiperazin-1-yl)phenyl)amino)pyrimidin-4-yl)-N-methyl-1H-pyrrole-3-carboxamide], the IC50 in test [1] amounted to 78 nM; in test [2], 14 nM. For `CN1CCN(c2ccc(Nc3ncc(Cl)c(-n4ccc(C(=O)NCC5CC5)c4)n3)cc2)CC1` [TDM-181171, 1-(5-Chloro-2-((4-(4-methylpiperazin-1-yl)phenyl)amino)pyrimidin-4-yl)-N-(cyclopropylmethyl)-1H-pyrrole-3-carboxamide], in that order: 50 nM and 9 nM. Take `CCCS(=O)(=O)Nc1cnn(-c2nc(Nc3cnn(C4CCNCC4)c3)ncc2Cl)c1` [TDM-181177, N-(1-(5-Chloro-2-(1-(piperidin-4-yl)-1H-pyrazol-4-ylamino)pyrimidin-4-yl)-1H-pyrazol-4-yl)propane-1-sulfonamide]: the values for the IC50 in test [1] and in test [2] were 72 nM and 9 nM, respectively. Turning to `CCCS(=O)(=O)Nc1cnn(-c2nc(Nc3cnc(C4CCNCC4)s3)ncc2Cl)c1` [TDM-181179, N-(1-(5-Chloro-2-((2-(piperidin-4-yl)thiazol-5-yl)amino)pyrimidin-4-yl)-1H-pyrazol-4-yl)propane-1-sulfonamide], the IC50 in test [1] turned out to be 42 nM; in test [2], 6 nM.
